# Experimental data published in EP2711366A1, “Cationic triphenylamine derivatives activable by visible and Infra Red light for inducing and imaging apoptosis in cancer cells” (Institut Curie, priority 2012, dated 2014).
# What was measured:
# [1] = system: ROS (reactive oxygen species) in MCF7 cells; test: Fluorescence detection of ROS generation with H2DCF-DA probe, flow cytometry; type: cell-based; settings: 2µM, 2 hours
# Procedure: CF-7 cells were plated in 12-well plates (2.10^5 cells/well) and incubated with 2µM of TP2Py for 2h at 37°C. After a time illumination of 30 min [Irradiance, 40mW/cm^2. The source of excitation was a Mercury lamp (130 W; 380-600 nm) with an excitation filter centered at 452 nm (± 45 nm)], cells were gently scraped, individualized in PBS-EDTA (10 mM) and stained with 10µM of […] (H2DCF-DA) (Molecular Probe, USA) for 45 min. Cells were then washed in ice-cold HEPES buffer before analysis. Fluorescence signals of H2DCF-DA and TP2Py were measured by FACSCalibur flow cytometer using FL1 and FL2 detectors, respectively.
# Different experiments are summarized below: • Control MCF7 cells were treated with DMSO (1%) (Fig.13A) without light exposure; • MCF7 cells were plated and treated with H2DCF-DA and 2µM TP2Py for 2 hours without light exposure (Fig.13B); • MCF7 cells were plated and treated with H2DCF-DA and 2µM TP2Py for 2 hours after a time illumination of 30 min (Fig.13C)
# The horizontal (FL1-H) and vertical (FL2-H) axes correspond to fluorescence signals of H2DCF-DA and TP2Py, respectively.
# [2] = system: PARP (poly-ADP ribose polymerase) cleavage in HeLa cells; test: PARP cleavage by Western blot and cell morphology after illumination; type: cell-based; settings: 2 µM, 2h, 17 mW.cm^-2, 452 nm filter
# Procedure: HeLa cells were plated in 6-well plates (4.10^5 cells/well) and incubated with 2 µM TP2Py for 2h at 37°C. After varying illumination times (up to 90min) at 17 mW.cm^-2 (Mercury lamp (130W; 380-600nm) + excitation filter centered at 452 nm (± 45 nm)), cells were collected by scraping, washed once in ice-cold PBS, treated with lysis buffer (1% Nonidet P-40, 20 mM Tris pH 8.0, 137 mM NaCl, 10% glycerol (v/v)) supplemented with 1 mM phenyl-methylsulfonyl fluoride, 1 mM sodium orthovanadate and anti-protease cocktail (Complete, Boehringer Mannheim, Germany) for 20 min on ice and further centrifuged at 10000g for 10 min. Protein concentrations were determined using the bicinchoninic acid method (micro BCA, Pierce, USA). 40µg of detergent soluble proteins were separated by SDS-PAGE under reducing conditions followed by Western blotting. Membranes were first incubated overnight at 4°C with the rabbit primary polyclonal antibody anti-PARP (Cell Signaling Technology). Membranes were then probed with horseradish peroxidase-labelled anti-rabbit IgG (dilution, 1/2000) (Dakocytomation). Detection was based on a chemiluminescence detection system (GE Healthcare, Orsay, France). […]
# The cleavage of PARP, a hallmark of apoptosis, was assessed by Western blot using an anti-PARP antibody that recognizes both the entire and cleaved PARP (Fig. 11).
# [3] = Dark toxicity (MTT assay, without illumination); type: cell-based; settings: human; MCF-7 cells, tested in dark; read-out: TC50 (toxicity concentration 50%), dark toxicity
# Procedure: Different experiments were conducted and described below: • MCF7 cells were treated with 2µM of TP2Py or TP3Bzim and exposed to illumination (Fig.9A); • HeLa cells were treated with 2µM of TP2Py or TP3Bzim and exposed to illumination (Fig.9B); • MCF7 cells were treated with TP2Py, 40 min illumination (black circles) or without illumination (white circles) (Fig.9C) • HeLa cells were treated with TP2Py [30 min illumination (black circles) or without illumination (white circles)] or TP3Bzim [15 min illumination (black triangles) or without illumination (white triangles)]
# For each experiment, the source of excitation was a Mercury lamp (130W; 380-600nm) with an excitation filter centered at 452nm (± 45 nm), irradiance, 60mW/cm^2.
# First, the experiment was calibrated by determining the time of illumination exposure which leads to the toxicity 50%, for a given concentration of TPA (2 µM) and for an irradiance of 60mW/cm^2. […] This characteristic time was then used for the plots shown in Fig. 9C and 9D which represent the cell viability as a function of TPA concentration (in HeLa and MCF-7 cells, respectively).
# DNA = settings: cited from earlier work
smiles,measurement,setting,value
C[n+]1ccc(/C=C/c2ccc(N(c3ccccc3)c3ccc(/C=C/c4cc[n+](C)cc4)cc3)cc2)cc1 [TP2Py],"HMFI population (H2DCF-DA positive, TP2Py positive)","[1]; 30 min illumination, 40mW/cm^2",15.4%
same,"HMFI population (H2DCF-DA positive, TP2Py positive)",[1]; without light exposure,4.9%
same,illumination time after which PARP cleavage was detected,[2],60 min
same,CC50,[3],> 30 µM
same,"maximum of emission in vitro, DNA-bound",DNA; Allains et al. 2007,634 nm
same,"λmax,emission",DNA; b156 attributes 634 nm to DNA-bound TP2Py in vitro (Allains et al. 2007),634 nm
